The term IC50 denotes the concentration that gives 50% inhibition. One may read the EC50 as the concentration that produces a half-maximal response. What is called Ki is a measure of affinity in units of concentration, obtained from inhibition or displacement. In general, AC50 refers to the midpoint of the concentration-response curve, whichever way the signal moves.

One test addresses Melanocortin receptor 4 (Homo sapiens, UniProt P32245). Nature of the test: MC4R antagonist potency on cAMP, dose response, cell-based, TR-FRET, biased antagonists (AID 602298).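 Note: antagonist potency against agonist-stimulated cAMP production.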 The class given is functional.
The subject of test [1] is Streptococcus sp. 'group A'. Nature of the test: growth inhibition of control SK(-) GAS strain, dose response, counter-screen for streptokinase expression inhibitor project, luminescence, kanamycin, BacTiterGlo, confirmation (AID 1900). The class given is functional, organism-based.
The next test addresses T1, Streptokinase A (Streptococcus pyogenes serotype M1, UniProt P10520).
T1 sequence (P10520 whole entry): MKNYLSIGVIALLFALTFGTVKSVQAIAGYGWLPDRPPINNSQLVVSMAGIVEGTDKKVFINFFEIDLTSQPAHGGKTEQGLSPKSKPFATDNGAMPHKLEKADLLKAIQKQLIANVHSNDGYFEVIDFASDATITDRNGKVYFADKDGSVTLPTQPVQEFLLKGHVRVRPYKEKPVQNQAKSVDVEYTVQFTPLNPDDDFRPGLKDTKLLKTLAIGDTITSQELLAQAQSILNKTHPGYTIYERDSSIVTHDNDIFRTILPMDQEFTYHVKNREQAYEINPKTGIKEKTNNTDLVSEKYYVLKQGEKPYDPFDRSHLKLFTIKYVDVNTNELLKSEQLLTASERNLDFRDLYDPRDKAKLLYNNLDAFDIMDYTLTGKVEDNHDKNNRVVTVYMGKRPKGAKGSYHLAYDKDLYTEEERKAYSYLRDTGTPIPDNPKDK
Nature of the test: S. pyogenes streptokinase expression inhibitors, potency, dose response, plasminogen activation absorbance, OD405 (AID 1914).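 Note: secreted streptokinase activity via plasminogen activation per viability signal from cell pellet.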 The class given is functional, Streptococcus pyogenes M1 GAS.

The next test deals with T2, Protein RecA (Mycobacterium tuberculosis, UniProt P9WHJ3).
T2 sequence (P9WHJ3 whole entry): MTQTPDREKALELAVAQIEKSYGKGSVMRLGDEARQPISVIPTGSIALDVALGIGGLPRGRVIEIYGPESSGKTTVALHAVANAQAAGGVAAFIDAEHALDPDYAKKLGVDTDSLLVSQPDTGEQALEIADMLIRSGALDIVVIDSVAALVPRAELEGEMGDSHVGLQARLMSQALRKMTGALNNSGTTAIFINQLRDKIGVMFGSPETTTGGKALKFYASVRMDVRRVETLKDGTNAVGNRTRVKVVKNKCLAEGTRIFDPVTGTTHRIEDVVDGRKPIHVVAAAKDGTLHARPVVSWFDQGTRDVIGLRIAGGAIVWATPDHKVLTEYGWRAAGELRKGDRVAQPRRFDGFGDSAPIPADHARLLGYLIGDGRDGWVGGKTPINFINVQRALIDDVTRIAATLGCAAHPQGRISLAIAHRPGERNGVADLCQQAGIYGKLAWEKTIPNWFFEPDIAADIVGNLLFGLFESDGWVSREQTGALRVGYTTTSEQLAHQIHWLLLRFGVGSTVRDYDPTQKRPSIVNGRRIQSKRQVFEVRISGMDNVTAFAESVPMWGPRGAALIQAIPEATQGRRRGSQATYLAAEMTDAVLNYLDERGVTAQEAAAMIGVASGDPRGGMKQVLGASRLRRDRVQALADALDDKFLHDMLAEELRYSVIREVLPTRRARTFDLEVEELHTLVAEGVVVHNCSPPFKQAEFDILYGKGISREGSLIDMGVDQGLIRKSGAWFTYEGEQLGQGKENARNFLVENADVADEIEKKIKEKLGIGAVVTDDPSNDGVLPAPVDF
Nature of the test: Fluorescence Cell-Free Homogeneous Dose Retest to Identify Inhibitors of RecA-Intein Splicing Activity. [Related pubchem assays (depositor defined):AID2097, AID2223, AID489010, AID492950]. The class given is functional.

Test [2] deals with Serine/threonine-protein kinase D3 (Homo sapiens, UniProt O94806). The class given is functional.
Test [3] has as its target Serine/threonine-protein kinase PAK 4 (Homo sapiens, UniProt O96013). The class given is functional.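 Note: value obtained within a kinome profiling panel in which PAK4 was one of the panel members.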
The target in test [4] is BDNF/NT-3 growth factors receptor (Homo sapiens, UniProt Q16620). The class given is functional.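 Note: NTRK2 measured as one member of a broad kinome-wide kinase profiling panel.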
BDNF/NT-3 growth factors receptor, sequence (Q16620 whole entry): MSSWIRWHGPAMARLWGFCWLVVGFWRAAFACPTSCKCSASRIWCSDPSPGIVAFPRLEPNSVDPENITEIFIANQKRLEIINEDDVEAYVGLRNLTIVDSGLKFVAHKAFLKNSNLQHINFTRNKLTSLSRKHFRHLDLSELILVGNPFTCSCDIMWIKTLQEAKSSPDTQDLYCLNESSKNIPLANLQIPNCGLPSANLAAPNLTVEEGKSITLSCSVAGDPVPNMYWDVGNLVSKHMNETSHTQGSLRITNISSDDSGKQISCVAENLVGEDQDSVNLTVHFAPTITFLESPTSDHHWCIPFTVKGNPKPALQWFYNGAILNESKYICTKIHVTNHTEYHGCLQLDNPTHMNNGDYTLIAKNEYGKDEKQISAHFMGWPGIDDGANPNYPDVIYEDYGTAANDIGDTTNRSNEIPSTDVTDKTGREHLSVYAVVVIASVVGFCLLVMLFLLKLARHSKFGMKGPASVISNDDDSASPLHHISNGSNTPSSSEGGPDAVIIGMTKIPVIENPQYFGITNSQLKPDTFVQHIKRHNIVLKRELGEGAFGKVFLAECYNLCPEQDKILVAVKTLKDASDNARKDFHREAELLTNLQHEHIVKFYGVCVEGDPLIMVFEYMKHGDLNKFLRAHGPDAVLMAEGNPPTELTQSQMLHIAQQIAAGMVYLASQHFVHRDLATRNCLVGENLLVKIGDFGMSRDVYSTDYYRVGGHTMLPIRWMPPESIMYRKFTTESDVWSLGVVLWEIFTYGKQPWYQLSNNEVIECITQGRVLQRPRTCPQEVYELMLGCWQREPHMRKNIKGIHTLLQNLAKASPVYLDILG
The target of test [5] is Mitogen-activated protein kinase kinase kinase kinase 2 (Homo sapiens, UniProt Q12851). The class given is functional.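 Note: measured as one member of a kinome-wide kinase panel, with MAP4K2 as the panel entry.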
Test [6] concerns the target Hepatocyte growth factor receptor (Homo sapiens, UniProt P08581). The class given is functional.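 Note: kinase panel profiling across the kinome, with MET as the panel member.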
Test [7] deals with Death-associated protein kinase 3 (Homo sapiens, UniProt O43293). The class given is functional.
Death-associated protein kinase 3, sequence (O43293 whole entry): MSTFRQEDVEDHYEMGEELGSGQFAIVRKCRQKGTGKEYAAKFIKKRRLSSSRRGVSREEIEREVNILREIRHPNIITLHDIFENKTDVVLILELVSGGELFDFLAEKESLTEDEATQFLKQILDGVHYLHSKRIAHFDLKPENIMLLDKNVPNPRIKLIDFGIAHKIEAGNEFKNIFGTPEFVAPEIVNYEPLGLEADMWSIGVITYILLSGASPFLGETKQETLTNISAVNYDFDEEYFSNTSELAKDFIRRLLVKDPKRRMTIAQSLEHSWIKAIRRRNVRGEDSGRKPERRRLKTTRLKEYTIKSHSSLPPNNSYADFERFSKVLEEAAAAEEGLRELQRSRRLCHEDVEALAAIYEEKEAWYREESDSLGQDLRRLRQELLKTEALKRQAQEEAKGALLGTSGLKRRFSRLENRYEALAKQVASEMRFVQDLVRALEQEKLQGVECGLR
Test [8] addresses cAMP-dependent protein kinase catalytic subunit alpha (Homo sapiens, UniProt P17612). The class given is functional.
Another test concerns the target T3, Aurora kinase A (Homo sapiens, UniProt O14965).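 Note: value from the Navigating the Kinome kinase panel profiling, panel entry STK6.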
T3 sequence (O14965 whole entry): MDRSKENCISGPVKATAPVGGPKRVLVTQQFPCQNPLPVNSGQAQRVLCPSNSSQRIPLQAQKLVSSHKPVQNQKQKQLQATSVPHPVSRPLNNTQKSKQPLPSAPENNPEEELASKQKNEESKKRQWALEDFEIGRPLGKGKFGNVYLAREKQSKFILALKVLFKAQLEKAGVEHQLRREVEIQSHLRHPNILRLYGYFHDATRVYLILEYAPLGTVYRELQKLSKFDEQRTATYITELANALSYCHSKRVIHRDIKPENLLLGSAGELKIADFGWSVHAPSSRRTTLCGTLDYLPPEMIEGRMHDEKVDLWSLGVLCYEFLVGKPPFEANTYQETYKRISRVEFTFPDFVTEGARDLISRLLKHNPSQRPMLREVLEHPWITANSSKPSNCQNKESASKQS
The class given is functional.

Test [9] addresses Mitogen-activated protein kinase 9 (Homo sapiens, UniProt P45984). The class given is functional.
For test [10], the target named is Tyrosine-protein kinase Fyn (Homo sapiens, UniProt P06241). The class given is functional.
Tyrosine-protein kinase Fyn, sequence (P06241 whole entry): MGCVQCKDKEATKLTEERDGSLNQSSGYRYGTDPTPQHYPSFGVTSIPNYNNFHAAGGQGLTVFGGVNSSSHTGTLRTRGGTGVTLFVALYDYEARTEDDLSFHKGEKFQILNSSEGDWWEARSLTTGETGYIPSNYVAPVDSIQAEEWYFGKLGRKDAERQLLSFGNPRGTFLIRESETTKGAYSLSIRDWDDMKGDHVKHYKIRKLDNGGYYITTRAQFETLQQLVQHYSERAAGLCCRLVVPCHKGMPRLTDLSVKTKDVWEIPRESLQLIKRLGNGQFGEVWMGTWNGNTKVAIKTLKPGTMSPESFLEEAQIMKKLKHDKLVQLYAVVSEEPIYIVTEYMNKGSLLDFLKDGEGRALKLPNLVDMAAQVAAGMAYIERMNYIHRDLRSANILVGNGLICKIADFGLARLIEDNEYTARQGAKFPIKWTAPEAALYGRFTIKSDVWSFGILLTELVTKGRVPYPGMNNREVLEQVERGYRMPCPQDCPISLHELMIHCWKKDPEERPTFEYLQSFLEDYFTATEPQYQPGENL
Test [11] addresses Vascular endothelial growth factor receptor 1 (Homo sapiens, UniProt P17948). The class given is functional.
For test [12], the target named is Glucose-6-phosphate 1-dehydrogenase (Homo sapiens, UniProt P11413). Nature of the test: human G6PD enzyme inhibitors, dose response, selectivity assay for P. falciparum G6PD inhibitor project, biochemical, fluorescence (AID 504792). The class given is functional.
Glucose-6-phosphate 1-dehydrogenase, sequence (P11413 whole entry): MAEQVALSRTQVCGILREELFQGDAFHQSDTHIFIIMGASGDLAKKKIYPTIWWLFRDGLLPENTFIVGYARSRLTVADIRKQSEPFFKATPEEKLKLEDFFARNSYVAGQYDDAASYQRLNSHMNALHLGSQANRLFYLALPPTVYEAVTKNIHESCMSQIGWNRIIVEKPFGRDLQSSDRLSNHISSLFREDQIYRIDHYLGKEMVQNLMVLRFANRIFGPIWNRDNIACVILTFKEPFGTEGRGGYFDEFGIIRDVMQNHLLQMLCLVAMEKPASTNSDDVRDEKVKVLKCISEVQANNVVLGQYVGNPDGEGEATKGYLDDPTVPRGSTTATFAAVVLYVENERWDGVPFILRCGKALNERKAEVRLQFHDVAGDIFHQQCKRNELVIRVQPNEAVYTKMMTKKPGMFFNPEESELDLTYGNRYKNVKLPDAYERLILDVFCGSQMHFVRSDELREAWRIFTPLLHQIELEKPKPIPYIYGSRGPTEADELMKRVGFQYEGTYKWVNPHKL
The target in the next test is T4, Caspase-3 (Homo sapiens, UniProt P42574).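 Note: Dose-response selectivity test against caspase-3 for candidate inhibitors of sentrin-specific proteases (SENPs).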
T4 sequence (P42574 whole entry): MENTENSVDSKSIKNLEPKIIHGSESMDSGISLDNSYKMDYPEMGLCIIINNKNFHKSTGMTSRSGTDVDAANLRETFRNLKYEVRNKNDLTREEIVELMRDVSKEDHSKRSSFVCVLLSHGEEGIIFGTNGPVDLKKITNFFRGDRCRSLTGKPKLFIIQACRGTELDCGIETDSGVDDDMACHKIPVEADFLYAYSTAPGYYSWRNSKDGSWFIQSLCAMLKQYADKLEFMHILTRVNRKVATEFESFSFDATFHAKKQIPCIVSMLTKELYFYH
The class given is functional.

The subject of another test is INS1. Nature of the test: beta cell apoptosis inhibitors, cytokine rescue, dose response, luminescence, retest (AID 449756).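 Note: cell death triggered by IL-1 beta plus TNF-alpha plus IFN-gamma mixture; protective hits raise ATP signal compared with cytokine alone wells.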 The settings on record: Rattus norvegicus. The class given is functional, cell-based.

Activity calls are given as the source filed them. Some results are limits rather than exact numbers.

Serine/threonine-protein kinase PAK 4, sequence (O96013 whole entry): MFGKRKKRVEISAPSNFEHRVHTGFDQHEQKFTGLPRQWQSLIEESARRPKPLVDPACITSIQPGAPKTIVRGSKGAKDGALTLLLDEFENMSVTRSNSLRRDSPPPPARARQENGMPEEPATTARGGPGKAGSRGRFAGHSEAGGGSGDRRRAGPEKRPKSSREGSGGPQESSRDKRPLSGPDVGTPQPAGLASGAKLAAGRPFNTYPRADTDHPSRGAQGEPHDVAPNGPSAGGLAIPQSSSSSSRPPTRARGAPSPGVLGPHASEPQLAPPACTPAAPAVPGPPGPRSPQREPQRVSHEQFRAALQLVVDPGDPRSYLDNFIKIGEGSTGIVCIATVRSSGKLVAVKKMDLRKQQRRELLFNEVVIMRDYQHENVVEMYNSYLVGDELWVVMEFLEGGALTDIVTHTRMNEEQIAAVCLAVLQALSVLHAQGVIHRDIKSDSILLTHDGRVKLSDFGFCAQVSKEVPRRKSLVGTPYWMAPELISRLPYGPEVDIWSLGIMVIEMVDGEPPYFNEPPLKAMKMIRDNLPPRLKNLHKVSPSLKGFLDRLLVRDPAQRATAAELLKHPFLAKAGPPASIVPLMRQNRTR
Vascular endothelial growth factor receptor 1, sequence (P17948 whole entry): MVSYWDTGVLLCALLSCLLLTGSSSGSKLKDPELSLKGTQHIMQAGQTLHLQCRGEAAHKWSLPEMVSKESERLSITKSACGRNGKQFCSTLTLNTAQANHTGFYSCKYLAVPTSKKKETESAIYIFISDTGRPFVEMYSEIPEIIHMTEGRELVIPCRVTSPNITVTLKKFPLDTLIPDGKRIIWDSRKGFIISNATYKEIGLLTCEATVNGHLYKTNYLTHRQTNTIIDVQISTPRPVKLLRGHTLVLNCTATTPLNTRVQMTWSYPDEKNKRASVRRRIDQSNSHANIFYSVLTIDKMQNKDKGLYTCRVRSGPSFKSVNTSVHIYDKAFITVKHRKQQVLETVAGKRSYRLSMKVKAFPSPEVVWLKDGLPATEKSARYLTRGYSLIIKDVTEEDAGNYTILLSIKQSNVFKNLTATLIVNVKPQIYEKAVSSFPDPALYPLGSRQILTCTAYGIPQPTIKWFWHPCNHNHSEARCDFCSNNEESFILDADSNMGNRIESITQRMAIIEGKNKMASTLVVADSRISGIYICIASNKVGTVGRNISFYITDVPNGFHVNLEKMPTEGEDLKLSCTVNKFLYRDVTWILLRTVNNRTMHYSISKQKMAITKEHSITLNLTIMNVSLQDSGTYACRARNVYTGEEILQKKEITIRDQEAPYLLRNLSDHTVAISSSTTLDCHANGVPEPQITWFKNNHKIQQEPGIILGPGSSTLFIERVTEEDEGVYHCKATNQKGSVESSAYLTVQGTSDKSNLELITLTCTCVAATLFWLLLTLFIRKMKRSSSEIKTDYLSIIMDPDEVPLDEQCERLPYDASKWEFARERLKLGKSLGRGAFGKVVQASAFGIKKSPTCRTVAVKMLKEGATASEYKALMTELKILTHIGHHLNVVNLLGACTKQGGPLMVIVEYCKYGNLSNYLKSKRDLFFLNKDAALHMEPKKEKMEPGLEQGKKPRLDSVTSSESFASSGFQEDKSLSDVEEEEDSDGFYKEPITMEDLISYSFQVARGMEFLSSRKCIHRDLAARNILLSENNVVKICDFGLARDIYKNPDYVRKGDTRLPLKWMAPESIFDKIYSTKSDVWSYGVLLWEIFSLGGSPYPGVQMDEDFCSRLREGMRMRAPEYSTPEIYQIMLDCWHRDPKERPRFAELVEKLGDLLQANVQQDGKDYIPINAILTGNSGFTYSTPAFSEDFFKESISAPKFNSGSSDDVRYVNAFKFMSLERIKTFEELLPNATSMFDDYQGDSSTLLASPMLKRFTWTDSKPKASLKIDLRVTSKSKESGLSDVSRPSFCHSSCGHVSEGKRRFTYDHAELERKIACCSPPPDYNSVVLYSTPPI
Mitogen-activated protein kinase 9, sequence (P45984 whole entry): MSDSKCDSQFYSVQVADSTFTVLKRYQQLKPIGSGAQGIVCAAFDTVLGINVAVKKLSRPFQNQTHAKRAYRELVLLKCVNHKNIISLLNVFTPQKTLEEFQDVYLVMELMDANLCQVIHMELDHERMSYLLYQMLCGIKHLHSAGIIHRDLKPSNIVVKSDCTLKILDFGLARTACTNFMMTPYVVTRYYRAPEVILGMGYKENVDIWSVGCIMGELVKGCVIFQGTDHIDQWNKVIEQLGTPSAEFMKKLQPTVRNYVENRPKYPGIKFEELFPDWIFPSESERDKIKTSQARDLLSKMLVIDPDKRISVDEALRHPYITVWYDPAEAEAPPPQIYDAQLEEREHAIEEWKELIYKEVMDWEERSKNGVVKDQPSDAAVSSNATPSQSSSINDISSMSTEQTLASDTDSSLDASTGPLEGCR
Melanocortin receptor 4, sequence (P32245 whole entry): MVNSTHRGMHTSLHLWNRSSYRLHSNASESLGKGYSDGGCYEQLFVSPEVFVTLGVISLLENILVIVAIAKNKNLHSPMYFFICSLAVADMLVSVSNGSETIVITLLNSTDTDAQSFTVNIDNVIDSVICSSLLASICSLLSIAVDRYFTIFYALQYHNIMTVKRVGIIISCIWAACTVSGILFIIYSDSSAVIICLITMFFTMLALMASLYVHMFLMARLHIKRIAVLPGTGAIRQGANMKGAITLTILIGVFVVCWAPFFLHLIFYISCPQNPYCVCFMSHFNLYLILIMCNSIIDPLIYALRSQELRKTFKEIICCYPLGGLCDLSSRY

Consider `CCCCCCCCCCC[N+](C)(C)CC/C=C1/c2ccccc2Sc2ccc(Cl)cc21`, for which the IC50 on Melanocortin receptor 4 was 24300 nM (inactive). In addition, the EC50 in test [1] was 1460 nM (active); on Streptokinase A it was 8220 nM (active); at Protein RecA, 10100 nM (active).

As to `CCn1c(-c2nonc2N)nc2cncc(C(=O)N3CCC(N)C3)c21` (stereo not given), the Ki was 631 nM (active) in test [2]; > 5010 nM (inactive) in [3]; > 3980 nM (inactive) in test [4]; > 2510 nM (inactive) in test [5]; > 2510 nM (inactive) in [6]; 79.4 nM (active) in [7]. Besides, the Ki is 3.16 nM (active) in [8]; > 1580 nM (inactive) at Aurora kinase A; > 3980 nM (inactive) in test [9]; > 6310 nM (inactive) in test [10]; > 3980 nM (inactive) in test [11].

As to `Cc1[nH]nc2ccc(-c3cncc(OCC(N)Cc4c[nH]c5ccccc45)c3)cc12` (stereo not given), the Ki in test [2] was 5.01 nM (active); in [3], 1580 nM (active); in test [4], > 5010 nM (inactive); in test [5], 25.1 nM (active); in test [6], > 3160 nM (inactive); in [7] it was 100 nM (active). Also, the Ki is 5.01 nM (active) in test [8]; > 1580 nM (inactive) on Aurora kinase A; 2000 nM (active) in [9]; > 794 nM (inactive) in test [10]; > 398 nM (inactive) in test [11].

On to `COC(=O)c1ccccc1NC1=C/C(=N\S(=O)(=O)c2cccs2)c2ccccc2C1=O`, for which the values for the IC50 (in test [12]; at Caspase-3) were 27200 nM (inactive) and 68400 nM (active), respectively. Besides, the AC50 in the test with INS1 was 2190 nM (active). Further, the EC50 at Protein RecA is 20.8 nM (inconclusive).

As to `Cc1cc(C)c[n+](C2=C([N-]S(=O)(=O)c3cccs3)C(=O)c3ccccc3C2=O)c1`, the IC50 in test [12] is > 80000 nM (inactive); at Caspase-3, 81900 nM (active). Also, in the test on INS1, the AC50 is 3120 nM (active). In addition, the EC50 is 941 nM (active) in test [1] and > 150000 nM (not active) on Streptokinase A.

These data come from ChEMBL document CHEMBL1201862, “PubChem BioAssay data set” (2004).
